Measurements from the supplement of paper PMC11451515.

System: SEM cells
Assay: cell viability relative to DMSO control; higher = less cytotoxic
Conditions: 48 h
Method in brief: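 In 1536-well plates, 5 μl of leukemia cells were seeded per well: 500 cells/well for NOMO1 or SEM and 1000 cells/well for P12-Ichikawa. Each line had first been adapted for at least four passages in each medium. Library compounds in DMSO were pin-dosed at 11 threefold concentrations between 47 μM and 0.79 nM, and CellTiter-Glo One luminescence was read after 48 h at 37°C. Viability is a per-plate percentage relative to DMSO wells, with cell-free wells as background.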

[1] = HPLM + 10% dialyzed FBS, 0.000781 µM
[2] = HPLM + 10% dialyzed FBS, 0.00234 µM
[3] = HPLM + 10% dialyzed FBS, 0.00702 µM
[4] = HPLM + 10% dialyzed FBS, 0.0211 µM
[5] = HPLM + 10% dialyzed FBS, 0.0632 µM
[6] = HPLM + 10% dialyzed FBS, 0.19 µM
[7] = HPLM + 10% dialyzed FBS, 0.569 µM
[8] = HPLM + 10% dialyzed FBS, 1.71 µM
[9] = HPLM + 10% dialyzed FBS, 5.12 µM
[10] = HPLM + 10% dialyzed FBS, 15.4 µM
[11] = HPLM + 10% dialyzed FBS, 46.1 µM
[12] = RPMI 5 mM glucose + 10% FBS, 0.000781 µM
[13] = RPMI 5 mM glucose + 10% FBS, 0.00234 µM
[14] = RPMI 5 mM glucose + 10% FBS, 0.00702 µM
[15] = RPMI 5 mM glucose + 10% FBS, 0.0211 µM
[16] = RPMI 5 mM glucose + 10% FBS, 0.0632 µM
[17] = RPMI 5 mM glucose + 10% FBS, 0.19 µM
[18] = RPMI 5 mM glucose + 10% FBS, 0.569 µM
[19] = RPMI 5 mM glucose + 10% FBS, 1.71 µM
[20] = RPMI 5 mM glucose + 10% FBS, 5.12 µM
[21] = RPMI 5 mM glucose + 10% FBS, 15.4 µM
[22] = RPMI 5 mM glucose + 10% FBS, 46.1 µM
[23] = RPMI 5 mM glucose + 10% dialyzed FBS, 0.000781 µM
[24] = RPMI 5 mM glucose + 10% dialyzed FBS, 0.00234 µM
[25] = RPMI 5 mM glucose + 10% dialyzed FBS, 0.00702 µM
[26] = RPMI 5 mM glucose + 10% dialyzed FBS, 0.0211 µM
[27] = RPMI 5 mM glucose + 10% dialyzed FBS, 0.0632 µM
[28] = RPMI 5 mM glucose + 10% dialyzed FBS, 0.19 µM
[29] = RPMI 5 mM glucose + 10% dialyzed FBS, 0.569 µM
[30] = RPMI 5 mM glucose + 10% dialyzed FBS, 1.71 µM
[31] = RPMI 5 mM glucose + 10% dialyzed FBS, 5.12 µM
[32] = RPMI 5 mM glucose + 10% dialyzed FBS, 15.4 µM
[33] = RPMI 5 mM glucose + 10% dialyzed FBS, 46.1 µM

Row | Structure (SMILES) | cell viability [1] [%] | cell viability [2] [%] | cell viability [3] [%] | cell viability [4] [%] | cell viability [5] [%] | cell viability [6] [%] | cell viability [7] [%] | cell viability [8] [%] | cell viability [9] [%] | cell viability [10] [%] | cell viability [11] [%] | cell viability [12] [%] | cell viability [13] [%] | cell viability [14] [%] | cell viability [15] [%] | cell viability [16] [%] | cell viability [17] [%] | cell viability [18] [%] | cell viability [19] [%] | cell viability [20] [%] | cell viability [21] [%] | cell viability [22] [%] | cell viability [23] [%] | cell viability [24] [%] | cell viability [25] [%] | cell viability [26] [%] | cell viability [27] [%] | cell viability [28] [%] | cell viability [29] [%] | cell viability [30] [%] | cell viability [31] [%] | cell viability [32] [%] | cell viability [33] [%]
1 | CO[C@@H](C(=O)N1Cc2[nH]nc(NC(=O)c3ccc(N4CCN(C)CC4)cc3)c2C1)c1ccccc1 | 95.5 | 84.2 | 103 | 90.9 | 71.1 | 55.6 | 38.4 | 24.6 | 28.3 | 24.3 | 24.9 | 107 | 92.3 | 103 | 94.6 | 59.3 | 38.9 | 23.5 | 20.5 | 19.7 | 15 | 18.7 | 87.9 | 97.1 | 87.4 | 90.7 | 59.8 | 39.5 | 32.2 | 20.2 | 25.1 | 20 | 16.4
2 | CC(=O)OC[C@@H]1O[C@H]([C@H](OC(C)=O)[C@@H]1OC(C)=O)N2\C=C/C(=O)NC2=O |  |  |  |  |  |  |  |  |  |  |  |  |  |  |  |  |  |  |  |  |  |  | 118 | 109 | 137 | 119 | 114 | 143 | 113 | 112 | 122 | 108 | 93.9
3 | CCCCc1ccc2[nH]c(NC(=O)OC)nc2c1 | 75.4 | 92.3 | 98.4 | 79.4 | 72.3 | 26.6 | 25.9 | 23.8 | 26.2 | 23 | 16.1 | 80 | 81.5 | 87.2 | 75.5 | 52.4 | 16.4 | 15.6 | 14.5 | 18 | 13.1 | 10.8 | 98.8 | 95.8 | 102 | 77.2 | 56.9 | 23.5 | 18.2 | 20.8 | 23.6 | 19.4 | 12.4
4 | Clc2cccc(Cl)c2\N=C1/NCCN1 | 76.6 | 98.6 | 28.8 | 105 | 90.8 | 116 | 119 | 108 | 114 | 122 | 113 | 92.7 | 103 | 9.62 | 119 | 106 | 115 | 105 | 112 | 112 | 119 | 110 | 93.3 | 116 | 28.5 | 126 | 131 | 132 | 127 | 130 | 131 | 117 | 138
5 | Cc1cc(Nc2ncc3c(n2)N(C)C(=O)N(c2cc(NC(=O)c4cccc(C(F)(F)F)c4)ccc2C)C3)n(C)n1 | 88 | 105 | 101 | 88.2 | 115 | 82.3 | 50.1 | 17.8 | 10.8 | 5.81 | 3.72 | 101 | 114 | 111 | 95 | 116 | 79.4 | 40.2 | 11.9 | 7.97 | 5.5 | 3.3 | 108 | 117 | 114 | 93.8 | 128 | 81.3 | 41 | 11.5 | 6.61 | 4.65 | 2.51
6 | Cc1cc(Nc2cc(N3CCN(C)CC3)nc(/C=C/c3ccccc3)n2)n[nH]1 | 83.9 | 109 | 112 | 96.5 | 95.4 | 60.3 | 36.6 | 6.67 | 5.57 | 4.53 | 5.51 | 86.5 | 108 | 94.1 | 112 | 93.8 | 60.6 | 29.5 | 5.23 | 4.53 | 3.57 | 4.68 | 100 | 112 | 97.1 | 112 | 95.3 | 57.8 | 28.2 | 6.13 | 4.41 | 3.5 | 5.17
7 | CC(C)c1onc(-c2c(Cl)cccc2Cl)c1COc1ccc(/C=C/c2cccc(C(=O)O)c2)c(Cl)c1 | 122 | 130 | 114 | 120 | 121 | 129 | 115 | 116 | 125 | 108 | 91.5 | 117 | 119 | 109 | 128 | 127 | 120 | 105 | 120 | 115 | 106 | 85.7 | 119 | 134 | 120 | 146 | 132 | 128 | 118 | 117 | 115 | 104 | 95.1
8 | CC(C(C)N1CC(=O)NC(=O)C1)N1CC(=O)NC(=O)C1 (centres undefined) | 97.2 | 136 | 116 | 125 | 116 | 128 | 123 | 106 | 95.2 | 58.4 | 40.5 | 73.4 | 79.9 | 101 | 102 | 92 | 104 | 80.8 | 60.1 | 49 | 31 | 19.7 | 86 | 93.3 | 120 | 134 | 122 | 115 | 128 | 91.3 | 65.7 | 39.1 | 35.1
9 | NC(=O)c1cnccn1 | 104 | 116 | 117 | 106 | 120 | 120 | 123 | 125 | 119 | 122 | 118 | 108 | 112 | 133 | 105 | 116 | 129 | 127 | 121 | 119 | 120 | 119 |  |  |  |  |  |  |  |  |  |  | 
10 | O=C(O)c1ccc(O)c2ncc(N3CCOCC3)cc12 | 101 | 117 | 128 | 110 | 103 | 102 | 116 | 99.8 | 73.5 | 99.2 | 11.4 | 106 | 109 | 109 | 115 | 112 | 94.1 | 106 | 99.3 | 65.9 | 84 | 7.59 | 94.8 | 98.4 | 96 | 99.6 | 95 | 86.2 | 99 | 87.4 | 46.4 | 68.9 | 7.27
11 | Nc1nc(F)nc2c1ncn2[C@@H]1O[C@H](COP(=O)(O)O)[C@@H](O)[C@@H]1O | 107 | 123 | 117 | 113 | 128 | 117 | 123 | 56.3 | 35.7 | 16.6 | 8.32 | 107 | 130 | 116 | 92.1 | 114 | 123 | 128 | 73.1 | 93.7 | 19.7 | 11.1 | 103 | 126 | 110 | 98.2 | 134 | 114 | 105 | 52.9 | 46.3 | 18 | 9.23
12 | N[S+](=O)([O-])c1ccc(Nc2nc(OCC3CCCCC3)c3[nH]cnc3n2)cc1 | 103 | 117 | 106 | 113 | 101 | 115 | 43 | 24 | 23.8 | 16.4 | 3.57 |  |  |  |  |  |  |  |  |  |  |  | 109 | 134 | 114 | 120 | 112 | 109 | 49.6 | 21 | 21.2 | 14.4 | 2.04
13 | C[C@H](NC(=O)Cc1cc(F)cc(F)c1)C(=O)N[C@H](C(=O)OC(C)(C)C)c1ccccc1 | 100 | 96.2 | 91.7 | 89.2 | 102 | 69.9 | 92.1 | 85.6 | 79.7 | 87.9 | 70.2 | 103 | 92.3 | 98.3 | 105 | 107 | 87.3 | 96.5 | 88.6 | 102 | 88.7 | 71.4 | 90.6 | 91.6 | 80.6 | 103 | 96.9 | 89.2 | 91.3 | 79.6 | 74.7 | 86.9 | 70.3
14 | CC[C@H]1OC(=O)[C@H](C)[C@@H](O[C@H]2C[C@@](C)(OC)[C@@H](O)[C@H](C)O2)[C@H](C)[C@@H](O[C@@H]2O[C@H](C)C[C@H](N(C)C)[C@H]2O)[C@](C)(OC)C[C@@H](C)C(=O)[C@H](C)[C@@H](O)[C@]1(C)O | 96.8 | 95.3 | 98.4 | 98.4 | 103 | 91.7 | 93.8 | 97.3 | 84.6 | 92.7 | 87.6 | 97 | 102 | 96 | 99 | 103 | 106 | 105 | 95.8 | 90.4 | 93.4 | 84.7 | 105 | 111 | 111 | 101 | 110 | 105 | 117 | 114 | 82.4 | 93 | 83.2
15 | CC1(C)CC\C2=C(/O1)C3=C(C=CC=C3)C(=O)C2=O | 103 | 117 | 86.2 | 112 | 113 | 110 | 98.8 | 94.7 | 95 | 78.9 | 4.79 | 127 | 115 | 94.1 | 124 | 129 | 117 | 117 | 102 | 108 | 76.3 | 3.64 | 105 | 121 | 95.4 | 102 | 114 | 119 | 100 | 84.5 | 72.9 | 55.8 | 2.69
16 | CNc1nc(-c2ccc3c(N)n[nH]c3c2)cc(N2C[C@@H](C(=O)NC3CCCCC3)CC[C@H]2C)n1 | 72.6 | 90 | 83.9 | 81.1 | 83.1 | 84.7 | 59.8 | 57.3 | 60.3 | 48.5 | 14.3 | 89.8 | 85.9 | 102 | 108 | 88.8 | 113 | 82.1 | 78.8 | 71.5 | 47.9 | 2.66 | 80.6 | 90.7 | 76.8 | 76.1 | 79.4 | 83.1 | 71.2 | 57.9 | 63.1 | 50.7 | 10.9
